Laboratory results taken from patent US6599521B1 (priority 2000, dated 2003).

Experiments:
S. aureus MN8 = type: cell-based, Staphylococcus aureus; conditions: 24 hours at 35° C.
TSST-1 = type: cell-based, Staphylococcus aureus; conditions: 24 hours at 35° C.

Row | Molecule | Final [S. aureus] (× 10^9 CFU/ml) (S. aureus MN8) | TSST-1 (TSST-1) [ng/mL]
1 | CCCCCCCCCCCCOCCOCCOCCOCCO [Laureth-4] | 4.57 × 10^9 CFU/ml | 531.8
2 | CCCCCCCCCCCCCCCCCCOCCOCCO [Steareth-2] | 5.76 × 10^9 CFU/ml | 680.7
3 | PPG-5 Laureth-5 | 3.82 × 10^9 CFU/ml | 609.2
